Data from patent US20140296263A1, “SUBSTITUTED XANTHINE DERIVATIVES” (CONCERT PHARMACEUTICALS, INC., priority 2011, published 2014).

Legend:
TNF-α = TNF-α inhibition assay in LPS-stimulated whole blood; format: cell-based, human; details: LPS-induced TNF-α in whole blood, potency relative to compound 401, FIG. 1
Procedure: Whole blood (sodium heparin vacutainer) was obtained from two normal, healthy donors from Research Blood Components, Boston, Mass. For each donor sample, two duplicate assays were performed according to the following procedure. Blood was diluted 1:1 with Opti-MEM® Reduced Serum Medium (Invitrogen) and 100 μl of diluted blood was added to wells of a 96-well plate. The test compounds were serially diluted in Opti-MEM® to create a dose-response. The resulting diluted solutions (50 μl) were then added to the wells containing diluted blood and the mixture was incubated for 15 minutes at 37° C., 5% CO2. Lipopolysaccharide (LPS) strain 113:H10 (obtained from Associates of Cape Cod #E0005) was prepared at a 4× concentration and 50 μl of 4 ng/ml solution was added to the blood to achieve a final concentration of 1 ng/ml. Control wells contained diluted blood and 100 μl Opti-MEM® (negative control) or 50 μl Opti-MEM® plus 50 μl LPS (positive control). Plates were then incubated for 24 h at 37° C., 5% CO2. After incubation, diluted plasma was harvested by centrifugation at 3000 RPM for 2 minutes to pellet the blood cells. Supernatant (diluted plasma) was then transferred into a clean 96-well plate. The diluted plasma was further diluted 1:10 with ELISA reagent diluents and the TNF-α level for each compound was measured following manufacturer's instructions for the DuoSet® ELISAs (R & D Systems). The IC50 value for the compound was calculated using commercially available statistics software and the average IC50 values from the two donors was calculated. The potency of the compound relative to the potency of compound 401 was obtained by dividing the IC50 value of compound 401 by the IC50 value of the compound.

[1] = system: reactive oxygen species (ROS); test: ROS inhibition assay in whole blood (neutrophils, DHR-123 flow cytometry); format: cell-based, human; details: fMLP or PMA stimulated whole blood, potency relative to compound 401, FIG. 1
Procedure: Whole blood (sodium heparin vacutainer) was obtained from two normal, healthy donors from Research Blood Components, Boston, Mass. For each donor sample, two duplicate assays were performed according to the following procedure. Whole blood (100 μl) was added to wells of a 96 deep-well plate. Compounds were serially diluted in Hanks Balanced Salt Solution (HBSS) to achieve a desired dose-response. The resulting diluted solutions (100 μl) were added to the whole blood samples, mixed gently, and incubated for 30 minutes at 37° C., 5% CO2. The blood was then stimulated by addition of Formyl-Methionyl-Leucyl-Phenylalanine (fMLP) (1 μM final concentration) or phorbol myristate acetate (PMA) (10 ng/ml final concentration) and was further incubated for 20 minutes at 37° C., 5% CO2. Dihydrorhodamine 123 (DHR-123) reagent (Invitrogen), a cell-permeable probe that becomes highly fluorescent when oxidized, was then added to the blood at a final concentration of 0.5 μM and incubated for another 20 minutes at 37° C., 5% CO2. The red blood cells were then lysed in 1 ml ammonium chloride-potassium (ACK) lysis buffer (Invitrogen) for 10 minutes at room temperature. The remaining leukocytes (including the neutrophils) were washed once in HBSS and resuspended in HBSS/0.5% paraformaldehyde. To quantify intracellular ROS production, the fluorescence of the oxidized form of DHR-123, which is a fluorescent compound, was measured. The level of oxidized DHR-123 in neutrophils was assessed for each sample by measuring cell fluorescence on a flow cytometer. The IC50 value was calculated using commercially available statistics software and the average IC50 values from the two donors was calculated. The potency of the compound relative to the potency of compound 401 was obtained by dividing the IC50 value of compound 401 by the IC50 value of the compound.

MCP-1 = MCP-1 assay (blood donors); format: cell-based, human; details: for IC50: Homo sapiens
Text: MCP-1 is a known pro-inflammatory cytokine that plays important roles in various diseases.

IFN-gamma = IFN-gamma assay (blood donors); format: cell-based, human; details: for IC50: Homo sapiens
[2] = pentoxifylline and its metabolites; cited from earlier work

IC50 (MCP-1; Donor 1)	IC50 (MCP-1; Donor 2)	MCP-1 IC50 values compared with Compounds 400 and 401 (MCP-1; both donors of Table 2)	IC50 (IFN-gamma; Donor I)	IC50 (IFN-gamma; Donor II)	IFN-gamma IC50 values compared with Compounds 400 and 401 (IFN-gamma; one donor)	IFN-gamma IC50 values compared with Compounds 400 and 401 (IFN-gamma; second donor)	Compound	activity (relative potency) in the TNF-α inhibition assay (TNF-α)	activity (relative potency) in the TNF-α inhibition assay (TNF-α; listed as M-2)	activity (relative potency) in the ROS inhibition assay [1]	activity (relative potency) in the ROS inhibition assay ([1]; listed as M-2)	time to peak plasma levels [2]
194 µM	125 µM	slightly higher	72 µM	119 µM	slightly higher	very similar	Cn1cnc2c1c(=O)n(CCCCC(O)CO)c(=O)n2C (stereo not drawn) [Compound 308, 1-(5,6-Dihydroxyhexyl)-3,7-dimethyl-1H-purine-2,6(3H,7H)-dione]	comparable activity	active	comparable activity	active	
							CC(O)C(O)CCCn1c(=O)c2c(ncn2C)n(C)c1=O (stereo not drawn) [Compound M-3]	significantly lower activity		significantly lower activity		
80 µM	80 µM		78 µM	63 µM			CC(=O)CCCCn1c(=O)c2c(ncn2C)n(C)c1=O [Compound 400, 1-(5-oxohexyl)-3,7-dimethylxanthine]	comparable activity		comparable activity		within one hour
							Cn1cnc2c1c(=O)n(CCCC(=O)O)c(=O)n2C [Compound M-5]	significantly lower activity		significantly lower activity		
							Cn1cnc2c1c(=O)n(CCCCC(=O)O)c(=O)n2C [Compound M-4]	significantly lower activity		significantly lower activity		
